Results from US20210038559A1, “CANNABINOIDS AND DERIVATIVES FOR PROMOTING IMMUNOGENICITY OF TUMOR AND INFECTED CELLS” (priority 2018, published 2021).

Each compound was assayed on MHC-I expression by COLO 205 cells (assay: cells). Conditions: not given.
Format: cell-based, human
Method: A panel of synthetic cannabinoids (Cayman Chemical, #9002891) was tested for MHC class I-inducing capability in COLO 205 cells as described above. COLO 205 cells were treated with the compounds at a concentration of 35 μM and evaluated for cell surface MHC class I expression after 48 hours. Cells were harvested, stained with MHC-I mAb W6/32 (Thermo Fisher). MHC-I expression was determined by flow cytometry.

**Q.** How did the “Induction Fold” value turn out when `CCCCn1c(C)c(C(=O)c2cccc3ccccc23)c2ccccc21` [Example 122, (1-butyl-2-methyl-1H-indol-3-yl)-1-naphthalenyl-methanone] was run?
**A.** The value was 2.31 Fold.

**Q.** `O=C(c1cccc2ccccc12)c1nn(CCCCCF)c2ccccc12` [Example 134, [1-(5-fluoropentyl)-1H-indazol-3-yl]-1-naphthalenyl-methanone] was tested. Which “Induction Fold” value did it give?
**A.** Its value is 2.23 Fold.

**Q.** For `CCCCCOc1ccc(C(=O)c2cccc3ccccc23)c2ccccc12` [Example 152, 1-naphthalenyl[4-(pentoxy)-1-naphthalenyl]-methanone], which “Induction Fold” value is on record?
**A.** The value was 2.12 Fold.

Same assay, conditions: Homo sapiens, COLO 205, 48 h, MHC-I expression, COLO 205 cells, compounds at 35 μM, 48 hours, flow cytometry (W6/32); read-out: Induction Fold

**Q.** `CC(C)(C)C(NC(=O)c1cc(-c2ccc(F)cc2)nn1CCCCCF)C(N)=O` (stereo not drawn) [Example 119, N-[1-(aminocarbonyl)-2,2-dimethylpropyl]-1-(5-fluoropentyl)-3-(4-fluorophenyl)-1H-pyrazole-5-carboxamide] was tested. Which fold induction at 35 µM did it give?
**A.** The fold induction at 35 µM was 2.33.

**Q.** Which fold induction at 35 µM does the source give for `CCCCCn1cc(C(=O)Cc2ccccc2Br)c2ccccc21` [Example 120, 2-(2-bromophenyl)-1-(1-pentyl-1H-indol-3-yl)-ethanone] here?
**A.** The fold induction at 35 µM was 2.32.

**Q.** `COc1ccc2c(c1)c(CC(=O)N1CCOCC1)c(C)n2C(=O)c1ccc(Cl)cc1` [Example 121, 2-[1-(4-chlorobenzoyl)-5-methoxy-2-methyl-1H-indol-3-yl]-1-(4-morpholinyl)-ethanone] was tested. Which fold induction at 35 µM did it give?
**A.** Its fold induction at 35 µM is 2.32.

**Q.** `CCCCCn1c(C(=O)c2cccc3ccccc23)nc2ccccc21` [Example 123, naphthalen-1-yl(1-pentyl-1H-benzo[d]imidazol-2-yl)methanone] was tested. Which fold induction at 35 µM did it give?
**A.** The fold induction at 35 µM was 2.31.

**Q.** With `O=C(Oc1cncc2ccccc12)c1cn(CC2CCCCC2)c2ccccc12` [Example 124, isoquinolin-4-yl 1-(cyclohexylmethyl)-1H-indole-3-carboxylate] as the compound, how does the fold induction at 35 µM read?
**A.** Its fold induction at 35 µM is 2.3.

**Q.** With `Cc1c(C(=O)C2C(C)(C)C2(C)C)c2ccccc2n1CCCCCF` [Example 126, (1-(5-fluoropentyl)-2-methyl-1H-indol-3-yl)(2,2,3,3-tetramethylcyclopropyl)methanone] as the compound, how does the fold induction at 35 µM read?
**A.** The fold induction at 35 µM was 2.29.

**Q.** For `CCC(C)n1cc(C(=O)c2cccc3ccccc23)c2ccccc21` (stereo not drawn) [Example 127, (1-(sec-butyl)-1H-indol-3-yl)(naphthalen-1-yl)methanone], which fold induction at 35 µM is on record?
**A.** The fold induction at 35 µM was 2.29.

**Q.** For `CCC(F)CCn1cc(C(=O)c2cccc3ccccc23)c2ccccc21` (stereo not drawn) [Example 128, (1-(3-fluoropentyl)-1H-indol-3-yl)(naphthalen-1-yl)methanone], which fold induction at 35 µM is on record?
**A.** The fold induction at 35 µM was 2.28.

**Q.** How did the fold induction at 35 µM turn out when `CCCCCn1cc(C(=O)c2ccc(OC)cc2)c2ccccc21` [Example 129, (4-methoxyphenyl)(1-pentyl-1H-indol-3-yl)methanone] was run?
**A.** Its fold induction at 35 µM is 2.27.

**Q.** How did the fold induction at 35 µM turn out when `O=C(c1cccc(I)c1)c1cn(CCCCCF)c2ccccc12` [Example 130, (1-(5-fluoropentyl)-1H-indol-3-yl)(3-iodophenyl)methanone] was run?
**A.** Its fold induction at 35 µM is 2.26.

**Q.** How did the fold induction at 35 µM turn out when `CCCCCn1cc(C(=O)Oc2cccc3ncccc23)c2ccccc21` [Example 131, quinolin-5-yl 1-pentyl-1H-indole-3-carboxylate] was run?
**A.** The fold induction at 35 µM was 2.26.

**Q.** Which fold induction at 35 µM does the source give for `C/C(=C\C(=O)c1cn(CCN2CCOCC2)c2ccccc12)C(C)(C)C` [Example 132, (E)-3,4,4-trimethyl-1-(1-(2-morpholinoethyl)-1H-indol-3-yl)pent-2-en-1-one] here?
**A.** The fold induction at 35 µM was 2.25.

**Q.** Which fold induction at 35 µM does the source give for `CCC(F)CCn1cc(C(=O)C2C(C)(C)C2(C)C)c2ccccc21` (stereo not drawn) [Example 133, [1-(3-fluoropentyl)-1H-indol-3-yl] (2,2,3,3-tetramethylcyclopropyl)-methanone] here?
**A.** The fold induction at 35 µM was 2.23.

**Q.** `O=C(Oc1cnc2ccccc2c1)c1cn(CCCCCF)c2ccccc12` [Example 136, quinolin-3-yl 1-(5-fluoropentyl)-1H-indole-3-carboxylate] was tested. Which fold induction at 35 µM did it give?
**A.** The fold induction at 35 µM was 2.22.

**Q.** With `CC1(C)C(C(=O)c2cn(CCCCCCl)c3ccccc23)C1(C)C` [Example 138, (1-(5-chloropentyl)-1H-indol-3-yl)(2,2,3,3-tetramethylcyclopropyl)methanone] as the compound, how does the fold induction at 35 µM read?
**A.** The fold induction at 35 µM was 2.21.

**Q.** With `O=C(c1ccc2ccccc2c1)c1cn(CCCCCF)c2ccccc12` [Example 139, (1-(5-fluoropentyl)-1H-indol-3-yl)(naphthalen-2-yl)methanone] as the compound, how does the fold induction at 35 µM read?
**A.** Its fold induction at 35 µM is 2.19.

**Q.** How did the fold induction at 35 µM turn out when `CCCCCn1cc(C(=O)Nc2cccc3cccnc23)c2ccccc21` [Example 141, 1-pentyl-N-8-quinolinyl-1H-indole-3-carboxamide] was run?
**A.** Its fold induction at 35 µM is 2.19.

**Q.** Which fold induction at 35 µM does the source give for `O=C(c1cccc2ccccc12)c1nn(CCCCCCl)c2ccccc12` [Example 142, (1-(5-chloropentyl)-1H-indazol-3-yl)(naphthalen-1-yl)methanone] here?
**A.** Its fold induction at 35 µM is 2.19.

**Q.** Which fold induction at 35 µM does the source give for `CC(C)[C@H](NC(=O)c1nn(Cc2ccccc2F)c2ccccc12)C(N)=O` [Example 143, N-[(1S)-1-(aminocarbonyl)-2-methylpropyl]-1-[(2-fluorophenyl)methyl]-1H-indazole-3-carboxamide] here?
**A.** Its fold induction at 35 µM is 2.19.

**Q.** Which fold induction at 35 µM does the source give for `O=C(NC12CC3CC(CC(C3)C1)C2)c1cn(CCCCCF)c2ccccc12` [Example 144, 1-(5-fluoropentyl)-N-tricyclo[3.3.1.13,7] dec-1-yl-1H-indole-3-carboxamide] here?
**A.** The fold induction at 35 µM was 2.17.

**Q.** How did the fold induction at 35 µM turn out when `Cc1ccc(C(=O)c2cn(CCCC(C)F)c3ccccc23)c2ccccc12` (stereo not drawn) [Example 145, (1-(4-fluoropentyl)-1H-indol-3-yl)(4-methylnaphthalen-1-yl)methanone] was run?
**A.** The fold induction at 35 µM was 2.16.

**Q.** With `CCCCCn1cc(C(=O)c2cccc3ccc(Cl)cc23)c2ccccc21` [Example 146, (7-chloronaphthalen-1-yl)(1-pentyl-1H-indol-3-yl)methanone] as the compound, how does the fold induction at 35 µM read?
**A.** Its fold induction at 35 µM is 2.16.

**Q.** How did the fold induction at 35 µM turn out when `CC1(C)C(C(=O)c2cn(CCN3CCOCC3)c3ccccc23)C1(C)C` [Example 147, [1-[2-(4-morpholinyl)ethyl]-1H-indol-3-yl](2,2,3,3-tetramethylcyclopropyl)-methanone] was run?
**A.** Its fold induction at 35 µM is 2.14.

**Q.** For `C=CCCCn1cc(C(=O)C2C(C)(C)C2(C)C)c2ccccc21` [Example 148, (1-(pent-4-en-1-yl)-1H-indol-3-yl)(2,2,3,3-tetramethylcyclopropyl)methanone], which fold induction at 35 µM is on record?
**A.** Its fold induction at 35 µM is 2.14.

**Q.** With `CCCCCn1cc(C(=O)c2ccc(F)c3ccccc23)c2ccccc21` [Example 150, (4-fluoro-1-naphthalenyl)(1-pentyl-1H-indol-3-yl)-methanone] as the compound, how does the fold induction at 35 µM read?
**A.** The fold induction at 35 µM was 2.14.

**Q.** `CCCC(F)Cn1cc(C(=O)C2C(C)(C)C2(C)C)c2ccccc21` (stereo not drawn) [Example 153, [1-(2-fluoropentyl)-1H-indol-3-yl] (2,2,3,3-tetramethylcyclopropyl)-methanone] was tested. Which fold induction at 35 µM did it give?
**A.** Its fold induction at 35 µM is 2.11.

**Q.** `Cc1ccc(C(=O)c2cn(CCCCCF)c3ccccc23)c2ccccc12` [Example 155, [1-(5-fluoropentyl)-1H-indol-3-yl](4-methyl-1-naphthalenyl)-methanone] was tested. Which fold induction at 35 µM did it give?
**A.** Its fold induction at 35 µM is 2.08.

**Q.** How did the fold induction at 35 µM turn out when `O=C(c1cccc2ccccc12)c1cn(CCCC2CO2)c2ccccc12` (stereo not drawn) [Example 156, naphthalen-1-yl(1-(3-(oxiran-2-yl)propyl)-1H-indol-3-yl)methanone] was run?
**A.** Its fold induction at 35 µM is 2.07.

**Q.** Which fold induction at 35 µM does the source give for `CCCC(Cl)Cn1cc(C(=O)C2C(C)(C)C2(C)C)c2ccccc21` (stereo not drawn) [Example 157, (1-(2-chloropentyl)-1H-indol-3-yl)(2,2,3,3-tetramethylcyclopropyl)methanone] here?
**A.** Its fold induction at 35 µM is 2.07.

**Q.** For `O=C(Oc1cccc2ncccc12)c1cn(CCCCCF)c2ccccc12` [Example 158, quinolin-5-yl 1-(5-fluoropentyl)-1H-indole-3-carboxylate], which fold induction at 35 µM is on record?
**A.** Its fold induction at 35 µM is 2.07.

**Q.** For `CCCCCCC(C)(C)c1cc(O)cc(OCCCCCCCC(=O)NC2CC2)c1` [Example 159, N-cyclopropyl-8-[3-(1,1-dimethylheptyl)-5-hydroxyphenoxy]-octanamide], which fold induction at 35 µM is on record?
**A.** The fold induction at 35 µM was 2.06.

**Q.** Which fold induction at 35 µM does the source give for `O=C(c1cn(CCCCCF)c2ccccc12)C12CC3CC(CC(C3)C1)C2` [Example 160, [1-(5-fluoropentyl)-1H-indol-3-yl]tricyclo[3.3.1.13,7]dec-1-yl-methanone] here?
**A.** The fold induction at 35 µM was 2.06.

**Q.** For `CCCCCn1cc(C(=O)c2cccc3ccc(C)cc23)c2ccccc21` [Example 161, (7-methyl-1-naphthalenyl)(1-pentyl-1H-indol-3-yl)-methanone], which fold induction at 35 µM is on record?
**A.** Its fold induction at 35 µM is 2.06.

**Q.** `O=C(Oc1cccc2cnccc12)c1cn(CC2CCCCC2)c2ccccc12` [Example 162, isoquinolin-5-yl 1-(cyclohexylmethyl)-1H-indole-3-carboxylate] was tested. Which fold induction at 35 µM did it give?
**A.** The fold induction at 35 µM was 2.04.

**Q.** How did the fold induction at 35 µM turn out when `CCCCCn1cc(C(=O)c2cccc3ccc(OC)cc23)c2ccccc21` [Example 163, (7-methoxy-1-naphthalenyl)(1-pentyl-1H-indol-3-yl)-methanone] was run?
**A.** The fold induction at 35 µM was 2.04.

**Q.** How did the fold induction at 35 µM turn out when `CCCCCn1cc(C(=O)c2ccc(CCC)c3ccccc23)c2ccccc21` [Example 164, (1-pentyl-1H-indol-3-yl)(4-propyl-1-naphthalenyl)-methanone] was run?
**A.** The fold induction at 35 µM was 2.03.

**Q.** `CCCCCn1cc(C(=O)Cc2cccc(C)c2)c2ccccc21` [Example 165, 1-(1-pentyl-1H-indol-3-yl)-2-(m-tolyl)ethanone] was tested. Which fold induction at 35 µM did it give?
**A.** The fold induction at 35 µM was 2.02.

**Q.** `O=C(Nc1cccc2cccnc12)c1nn(CCCCCF)c2ccccc12` [Example 166, 1-(5-fluoropentyl)-N-(quinolin-8-yl)-1H-indazole-3-carboxamide] was tested. Which fold induction at 35 µM did it give?
**A.** The fold induction at 35 µM was 2.01.

**Q.** With `O=C(Oc1cccc2ccccc12)c1nn(CCCCCF)c2ccccc12` [Example 167, naphthalen-1-yl 1-(5-fluoropentyl)-1H-indazole-3-carboxylate] as the compound, how does the fold induction at 35 µM read?
**A.** The fold induction at 35 µM was 2.01.

**Q.** `CC(C)(C)Cn1cc(C(=O)c2ccc3ccccc3c2)c2ccccc21` [Example 168, [1-(2,2-dimethylpropyl)-1H-indol-3-yl]-2-naphthalenyl-methanone] was tested. Which fold induction at 35 µM did it give?
**A.** Its fold induction at 35 µM is 2.01.

Same assay, conditions: MHC-I expression, COLO 205 cells, compounds at 35 μM, 48 hours, flow cytometry (W6/32)

**Q.** With `CCCCCCN1C(=O)/C(=N\NC(=O)c2ccccc2)c2ccccc21` [Example 125, (2Z)-2-(1-hexyl-1,2-dihydro-2-oxo-3H-indol-3-ylidene)hydrazide, benzoic acid] as the compound, how does the “Induction Fold” value read?
**A.** Its value is 2.29 Fold.

**Q.** With `CCCCCn1nc(C(=O)c2cccc3ccccc23)c2ccccc21` [Example 149, 1-naphthalenyl(1-pentyl-1H-indazol-3-yl)-methanone] as the compound, how does the “Induction Fold” value read?
**A.** Its value is 2.14 Fold.
